From patent US5942663A, “Biocidal proteins” (Zeneca Limited, priority 1991, dated 1999)
No end group written: not given here.

System: Cercospora beticola
Assay: Foliar diseases in vivo test, protectant foliar spray
Details: C beticola on sugarbeet, foliar spray 100 μg/ml
Description: The plants were grown in John Innes Potting Compost (No 1 or 2) in 4 cm diameter mini-pots. The protein preparation was formulated immediately prior to use by dissolving in sterile deionised water and diluting to the appropriate concentration. It is assumed that the protein extract contains approximately 1% active ingredient. A pure sample of Mj-AMP1 was similarly prepared. The formulations were applied to the plants as a foliar spray. The spray was applied to maximum discrete droplet retention. Tween 20, to give a final concentration of 0.05%, was added when the spray was applied to cereals. The protein preparation was applied to the foliage (by spraying) one or two days before the plant was inoculated with the disease (protectant application). […] After inoculation, the plants were put into an appropriate environment to allow infection to proceed and then incubated until the disease was ready for assessment. […]
Results are shown in Table 3 for the three fungal pathogens: Septoria nodorum (Fungi Imperfecti) tested on wheat, Plasmopara viticola (Phycomycete) tested on grapevine, and Cercospora beticola tested on sugarbeet. The disease control was recorded by the following grading: 4=no disease; 3=trace-5% of disease on untreated plants; 2=6-25% of disease on untreated plants; 1=26-60% of disease on untreated plants; 0=61-100% of disease on untreated plants.

Mj-AMP1: antimicrobial protein from Mirabilis jalapa seeds, dimer of two 4 kDa subunits, 37 residues, SEQ ID NO:1 (QCIGNGGRCNENVGPPYCCSGFCLRQPGQGYGYCKNR; cysteine pairing not given here; also: homodimer)
Disease control grading: 3 (3=trace-5% of disease on untreated plants)
